Test results published in publication PMC3774136 (Bioorganic & medicinal chemistry letters, 2013).
Where two headings read alike, the source gives them in different places.

Key:
[1] = test system: MCF-7 human breast cancer cells; experiment: Growth of MCF-7 human breast cancer cells; type: cell-based; conditions: compared with CA-4
[2] = test system: tubulin; conditions: read-out: Tubulin polymerization IC50; as reported in the literature; cited from earlier work
[3] = test system: tubulin (colchicine site); conditions: as reported in the literature, cited from earlier work

Row | Compound | Cytotoxic activity in MCF-7 cells (in words) [1] | IC50 [2] | Inhibition of binding of colchicine, % inhibition ([3]; 1 µM inhibitor) | Inhibition of binding of colchicine, % inhibition ([3]; 5 µM inhibitor)
1 | COc1ccc([Se][Se]c2ccc(OC)cc2)cc1 [Compound 13] | inactive | – | – | –
2 | COc1ccc(Sc2cc(OC)c(OC)c(OC)c2)cc1 [Compound 1] | – | 1200 ± 100 nM | 56 ± 7% | 89 ± 1%
3 | COc1ccc([Se]c2ccc(OC)cc2)cc1 [Compound 12] | inactive | – | – | –
4 | COc1cc(SSc2cc(OC)c(OC)c(OC)c2)cc(OC)c1OC [Compound 8] | inactive | – | – | –
5 | COc1ccc(Sc2cc(OC)c(OC)c(OC)c2)cc1[N+](=O)[O-] [Compound 2] | inactive | – | – | –
